Reference: EP0013144A1, “Substituted diphenylamine derivatives, compositions and herbicidal uses thereof, and processes for their preparation” (ICI AUSTRALIA LIMITED, priority 1978, dated 1980)

Columns and labels:
Format in all cases: in vivo
Maize [1] = assay: Post-emergence herbicidal test, young pot plants (Example 33); settings: 2.0 kg/ha, after 14 days
Protocol: (§1) The compounds were formulated for test by mixing an appropriate amount with 5 ml of an emulsion prepared by diluting 160 ml of a solution containing 21.S g per litre of "Span" 80 and 78.2 g per litre of "Tween" 20 in methylcyclohexanone to 500 ml with water. "Span" 80 is a Trade Mark for a surface-active agent comprising sorbitan monolaurate. "Tween" 20 is a Trade Mark for a surface-active agent comprising a condensate of sorbitan monolaurate with 20 molar proportions of ethylene oxide. Each 5 ml emulsion containing a test compound was'then diluted to 40 ml with water and sprayed on to young pot plants (post-emergence test) of the species named in Table 5 below. Damage to test plants was assessed after 14 days on a scale of 0 to 5 where 0 is 0 to 20% damage and 5 is complete kill. In a test for pre-emergence herbicidal activity, seeds of the test plants were sown in a shallow slit formed in the surface of soil in fibre trays. The surface was then levelled and sprayed, and fresh soil then spread thinly over the sprayed surface. Assessment of herbicidal damage was carried out after 21 days using the same scale of 0 to 5 as the post-emergence test. In both cases the degree of herbicidal damage was assessed by comparison with untreated control plants. A dash (-) means that no experiment was carried out.

Rice [2] = assay: as above; settings: 2.0 kg/ha, after 14 days
Protocol: as §1

Rape [3] = assay: as above; settings: 2.0 kg/ha, after 14 days
Protocol: as §1

Senecio vulgaris [4] = assay: as above; settings: 2.0 kg/ha, after 14 days
Protocol: as §1

Soy bean [5] = assay: as above; settings: 2.0 kg/ha, after 14 days
Protocol: as §1

Cotton [6] = assay: as above; settings: 2.0 kg/ha, after 14 days
Protocol: as §1

Ipomea purpurea [7] = assay: as above; settings: 2.0 kg/ha, after 14 days
Protocol: as §1

Sugar beet [8] = assay: as above; settings: 2.0 kg/ha, after 14 days
Protocol: as §1

Rape [9] = assay: Pre-emergence herbicidal test, fibre trays (Example 33); settings: 2.0 kg/ha, after 21 days
Protocol: as §1

Senecio vulgaris [10] = assay: as above; settings: 2.0 kg/ha, after 21 days
Protocol: as §1

Amaranthus retroflexus [11] = assay: as above; settings: 2.0 kg/ha, after 21 days
Protocol: as §1

Soy bean [12] = assay: as above; settings: 2.0 kg/ha, after 21 days
Protocol: as §1

Cotton [13] = assay: as above; settings: 2.0 kg/ha, after 21 days
Protocol: as §1

Ipomea purpurea [14] = assay: as above; settings: 2.0 kg/ha, after 21 days
Protocol: as §1

Winter wheat [15] = assay: as above; settings: 2.0 kg/ha, after 21 days
Protocol: as §1

Sugar beet [16] = assay: as above; settings: 2.0 kg/ha, after 21 days
Protocol: as §1

Maize [17] = assay: as above; parameters: key: 0 = 0-20% damage, 5 = complete kill, vs untreated control; settings: 2.0 kg/ha, after 21 days
Protocol: as §1

Winter wheat [18] = assay: Post-emergence herbicidal test, young pot plants (Example 33); parameters: key: 0 = 0-20% damage, 5 = complete kill, vs untreated control; settings: 2.0 kg/ha, after 14 days
Protocol: as §1

Rice [19] = assay: Pre-emergence herbicidal test, fibre trays (Example 33); settings: 2.0 kg/ha, after 21 days
Protocol: as §1

Mustard [20] = assay: Post-emergence herbicidal activity (Example 32); settings: 5 kg/ha, 3 weeks after spraying
Method in brief: (§2)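 Herbicidal effect is expressed as a visual 0–3 injury score relative to untreated controls, read 3 weeks after foliar application to glasshouse seedlings about 10 to 12.5 cm tall. Test compositions are water-diluted surfactant-based concentrates or suspensions.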

Sunflower [21] = assay: Post-emergence herbicidal activity (Example 32); settings: 3 weeks after spraying
Method in brief: as §2

Ryegrass [22] = assay: Post-emergence herbicidal activity (Example 32); settings: 3 weeks after spraying
Method in brief: as §2

Japanese millet [23] = assay: Post-emergence herbicidal activity (Example 32); settings: 3 weeks after spraying
Method in brief: as §2

Wild Oats [24] = assay: Post-emergence herbicidal activity (Example 32); settings: 5 kg/ha, 3 weeks after spraying
Method in brief: as §2

Ipomea [25] = assay: Post-emergence herbicidal activity (Example 32); settings: 3 weeks after spraying
Method in brief: as §2

Wheat [26] = assay: Post-emergence herbicidal activity (Example 32); parameters: key: 0-3 scale: 0 = 0-25% damage, 3 = 75-99% kill, 3+ = 100% kill; settings: 3 weeks after spraying
Method in brief: as §2

Mustard [27] = assay: Pre-emergence herbicidal activity (Example 31); settings: after three weeks
Method in brief: (§3)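 Ratings run from 0 (0–25% damage) to 3 (75–99% kill), with 3+ meaning complete kill, assessed visually three weeks after spraying. Treatment was applied to soil right after sowing, before germination was triggered by overhead watering in the glasshouse.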

Sunflower [28] = assay: Pre-emergence herbicidal activity (Example 31); settings: after three weeks
Method in brief: as §3

Japanese millet [29] = assay: Pre-emergence herbicidal activity (Example 31); settings: after three weeks
Method in brief: as §3

Ipomea [30] = assay: Pre-emergence herbicidal activity (Example 31); settings: after three weeks
Method in brief: as §3

Annual Rye Grass = assay: Selective herbicidal activity, seed boxes (Example 34); settings: weed; 0.15 kg/ha; sprayed on one week old seedlings; 29 days after spraying; triplicate
Text: (§4) The seeds of the test species were sprinkled onto . the surface of soil in seed boxes and covered with a thin layer of sand. The boxes were lightly watered with an overhead spray and placed in a glasshouse for one week to permit germination of the seeds and plant growth to a height of 4 to 5 inches. […] For comparison purposes at least one box containing one week old seedlings was sprayed lightly with water only. After spraying the boxes were returned to the glasshouse for a further 29 days after which the effect of the treatment was visually assessed.

Cotton [31] = assay: as above; settings: crop; 1.5 kg/ha; sprayed on one week old seedlings; 29 days after spraying; triplicate
Text: as §4

Japanese millet [32] = assay: as above; settings: weed; 0.15 kg/ha; sprayed on one week old seedlings; 29 days after spraying; triplicate
Text: as §4

Wild Oats [33] = assay: as above; settings: weed; 0.15 kg/ha; sprayed on one week old seedlings; 29 days after spraying; triplicate
Text: as §4

Soyabean = assay: as above; settings: crop; 1.5 kg/ha; sprayed on one week old seedlings; 29 days after spraying; triplicate
Text: as §4

Sorghum halepense = assay: as above; settings: weed; 0.15 kg/ha; sprayed on one week old seedlings; 29 days after spraying; triplicate
Text: as §4

Setaria aviceps = assay: as above; settings: weed; 0.15 kg/ha; sprayed on one week old seedlings; 29 days after spraying; triplicate
Text: as §4

Wheat [34] = assay: Pre-emergence herbicidal activity (Example 31); parameters: key: 0-3 scale: 0 = 0-25% damage, 3 = 75-99% kill, 3+ = 100% kill; settings: after three weeks
Method in brief: as §3

Ryegrass [35] = assay: Pre-emergence herbicidal activity (Example 31); parameters: key: 0-3 scale: 0 = 0-25% damage, 3 = 75-99% kill, 3+ = 100% kill; settings: after three weeks
Method in brief: as §3

Amaranthus retroflexus [36] = assay: Post-emergence herbicidal test, young pot plants (Example 33); settings: 2.0 kg/ha, after 14 days
Protocol: as §1

Chenopodium album [37] = assay: as above; settings: 2.0 kg/ha, after 14 days
Protocol: as §1

Polygonum aviculare [38] = assay: as above; settings: 2.0 kg/ha, after 14 days
Protocol: as §1

Chenopodium album [39] = assay: Pre-emergence herbicidal test, fibre trays (Example 33); settings: 2.0 kg/ha, after 21 days
Protocol: as §1

Polygonum aviculare [40] = assay: as above; settings: 2.0 kg/ha, after 21 days
Protocol: as §1

## COC(=O)C(C)Oc1ccc(N(C)c2ccc([N+](=O)[O-])cc2[N+](=O)[O-])cc1 (stereo not drawn) [Compound 18]
Maize [1]
  damage to test plants, Mz: 2
Rice [2]
  damage to test plants, Rc: 0 (0 is 0 to 20% damage)
Rape [3]
  damage to test plants, Rp: 0 (0 is 0 to 20% damage)
Senecio vulgaris [4]
  damage to test plants, Sn: 0 (0 is 0 to 20% damage)
Soy bean [5]
  damage to test plants, Sy: 0 (0 is 0 to 20% damage)
Cotton [6]
  damage to test plants, Ct: 0 (0 is 0 to 20% damage)
Ipomea purpurea [7]
  damage to test plants, Ip: 0 (0 is 0 to 20% damage)
Sugar beet [8]
  damage to test plants, Sb: 1
Rape [9]
  herbicidal damage, Rp: 1
Senecio vulgaris [10]
  herbicidal damage, Sn: 0 (0 is 0 to 20% damage)
Amaranthus retroflexus [11]
  herbicidal damage, Am: 0 (0 is 0 to 20% damage)
Soy bean [12]
  herbicidal damage, Sy: 0 (0 is 0 to 20% damage)
Cotton [13]
  herbicidal damage, Ct: 0 (0 is 0 to 20% damage)
Ipomea purpurea [14]
  herbicidal damage, Ip: 0 (0 is 0 to 20% damage)
Winter wheat [15]
  herbicidal damage, Ww: 0 (0 is 0 to 20% damage)
Sugar beet [16]
  herbicidal damage, Sb: 0 (0 is 0 to 20% damage)
Maize [17]
  herbicidal damage, Mz: 1
Winter wheat [18]
  damage to test plants, Ww: 0 (0 is 0 to 20% damage)
Rice [19]
  herbicidal damage, Rc: 1
Mustard [20]
  damage to plants, Ms: 0 (0 represents 0 to 25% damage)
Sunflower [21]; 5 kg/ha
  damage to plants, Sf: 0 (0 represents 0 to 25% damage)
Ryegrass [22]; 5 kg/ha
  damage to plants, Rg: 3+ (3+ represents 100% kill)
Japanese millet [23]; 5 kg/ha
  damage to plants, Jm: 3+ (3+ represents 100% kill)
Wild Oats [24]
  damage to plants, Ot: 3 (3 represents 75 to 99% kill)
Ipomea [25]; 5 kg/ha
  damage to plants, Ip: 0 (0 represents 0 to 25% damage)
Wheat [26]; 5 kg/ha
  damage to plants, Wh: 2

## CC(Oc1ccc(Nc2ccc(C(F)(F)F)cc2[N+](=O)[O-])cc1)C(=O)O (stereo not drawn) [Compound 46, 2[4-(2-Nitro-4-trifluoromethylanilino)phenoxy]-propionic acid]
Mustard [27]; 1 kg/ha
  damage to plants, Ms: 0 (0 represents from 0 to 25% damage)
Mustard [27]; 5 kg/ha
  damage to plants, Ms: 0 (0 represents from 0 to 25% damage)
Sunflower [28]; 1 kg/ha
  damage to plants, Sf: 0 (0 represents from 0 to 25% damage)
Sunflower [28]; 5 kg/ha
  damage to plants, Sf: 0 (0 represents from 0 to 25% damage)
Japanese millet [29]; 1 kg/ha
  damage to plants, Jm: 3 (3 represents 75 to 99% kill)
Japanese millet [29]; 5 kg/ha
  damage to plants, Jm: 3+ (3+ represents 100% kill)
Ipomea [30]; 1 kg/ha
  damage to plants, Ip: 0 (0 represents from 0 to 25% damage)
Ipomea [30]; 5 kg/ha
  damage to plants, Ip: 0 (0 represents from 0 to 25% damage)
Annual Rye Grass
  percentage damage, Rg: 55 percentage
Cotton [31]
  percentage damage, Ct: 50 percentage
Japanese millet [32]
  percentage damage, Jm: 85 percentage
Wild Oats [33]
  percentage damage, Ot: 50 percentage
Soyabean
  percentage damage, Sb: 38 percentage
Sorghum halepense
  percentage damage, Sh: 88 percentage
Setaria aviceps
  percentage damage, St: 55 percentage
Sunflower [21]; 1 kg/ha
  damage to plants, Sf: 0 (0 represents 0 to 25% damage)
Sunflower [21]; 5 kg/ha
  damage to plants, Sf: 2
Ryegrass [22]; 1 kg/ha
  damage to plants, Rg: 3+ (3+ represents 100% kill)
Ryegrass [22]; 5 kg/ha
  damage to plants, Rg: 3+ (3+ represents 100% kill)
Japanese millet [23]; 1 kg/ha
  damage to plants, Jm: 3+ (3+ represents 100% kill)
Japanese millet [23]; 5 kg/ha
  damage to plants, Jm: 3+ (3+ represents 100% kill)
Ipomea [25]; 1 kg/ha
  damage to plants, Ip: 0 (0 represents 0 to 25% damage)
Ipomea [25]; 5 kg/ha
  damage to plants, Ip: 0 (0 represents 0 to 25% damage)
Wheat [26]; 1 kg/ha
  damage to plants, Wh: 2
Wheat [26]; 5 kg/ha
  damage to plants, Wh: 3+ (3+ represents 100% kill)
Wheat [34]; 1 kg/ha
  damage to plants, Wh: 0 (0 represents from 0 to 25% damage)
Wheat [34]; 5 kg/ha
  damage to plants, Wh: 2
Ryegrass [35]; 1 kg/ha
  damage to plants, Rg: 2
Ryegrass [35]; 5 kg/ha
  damage to plants, Rg: 3+ (3+ represents 100% kill)

## COC(=O)C(C)Oc1ccc(Nc2ccc(C(F)(F)F)cc2[N+](=O)[O-])cc1Cl (stereo not drawn) [Compound 116]
Maize [1]
  damage to test plants, Mz: 4
Rice [2]
  damage to test plants, Rc: 4
Rape [3]
  damage to test plants, Rp: 0 (0 is 0 to 20% damage)
Amaranthus retroflexus [36]
  damage to test plants, Am: 0 (0 is 0 to 20% damage)
Soy bean [5]
  damage to test plants, Sy: 0 (0 is 0 to 20% damage)
Cotton [6]
  damage to test plants, Ct: 0 (0 is 0 to 20% damage)
Ipomea purpurea [7]
  damage to test plants, Ip: 0 (0 is 0 to 20% damage)
Chenopodium album [37]
  damage to test plants, Ca: 0 (0 is 0 to 20% damage)
Polygonum aviculare [38]
  damage to test plants, Pi: 0 (0 is 0 to 20% damage)
Sugar beet [8]
  damage to test plants, Sb: 3
Rape [9]
  herbicidal damage, Rp: 0 (0 is 0 to 20% damage)
Senecio vulgaris [10]
  herbicidal damage, Sn: 0 (0 is 0 to 20% damage)
Amaranthus retroflexus [11]
  herbicidal damage, Am: 0 (0 is 0 to 20% damage)
Soy bean [12]
  herbicidal damage, Sy: 0 (0 is 0 to 20% damage)
Cotton [13]
  herbicidal damage, Ct: 0 (0 is 0 to 20% damage)
Ipomea purpurea [14]
  herbicidal damage, Ip: 0 (0 is 0 to 20% damage)
Winter wheat [15]
  herbicidal damage, Ww: 4
Chenopodium album [39]
  herbicidal damage, Ca: 0 (0 is 0 to 20% damage)
Polygonum aviculare [40]
  herbicidal damage, Pi: 0 (0 is 0 to 20% damage)
Sugar beet [16]
  herbicidal damage, Sb: 0 (0 is 0 to 20% damage)
Maize [17]
  herbicidal damage, Mz: 3
Winter wheat [18]
  damage to test plants, Ww: 4
Rice [19]
  herbicidal damage, Rc: 4
